Assay results reported in article PMC5601486, “Identification of 4-phenylquinolin-2(1H)-one as a specific allosteric inhibitor of Akt” (Scientific Reports, 2017).

Columns and labels:
Akt S473 phosphorylation = assay: pS473-Akt HTRF assay; format: cell-based, Mouse
Method: Neuro 2A cells were seeded (4,000 cells/well) in 4 µL of DMEM with 0.5% FBS and 1x Penicillin/Streptomycin in white solid bottom tissue-culture treated 1536-well plates (Greiner, 789173-F) with MultiDrop Combi Dispenser (Thermo Scientific). The cells were incubated for 24 h at 37 °C, 5% CO2, 95% humidity. Twenty-three nL of tested compounds were transferred to each well with an automated pin-tool station (Kalypsys). Following incubation for 15 min at 37 °C, 0.5 µL IGF (500 ng/mL of final concentration) was added and incubated for additional 40 min at 37 °C. After the addition of 1.5 µL 4x lysis buffer and 15-min incubation at room temperature (25 °C), 2 µL of HTRF® conjugated antibodies (fluorophore d2 conjugated anti-Akt monoclonal antibody and Europium^3+ cryptate-labeled anti-pS473-Akt monoclonal antibody, obtained from CisBio, 1:80 dilution) were added with BioRAPTR FRD™ (Beckman Coulter). The plates were incubated at room temperature for 20 h. The signal was measured by EnVision Multilabel Plate Reader (PerkinElmer) with excitation at 330 nm, emission at 620 nm (donor) and 665 nm (acceptor). Results were calculated and analyzed in a format of the ratio 665 nm/620 nm multiplied by 10^4.
Relative activity was calculated by normalizing each HTRF signal from each sample well to the mean HTRF signal from the DMSO-only control wells.
The Library of Pharmacologically Active Compounds (LOPAC, 1280 compounds) and the Molecular Library Small Molecular Repository Library (MLSMR, 373,868 compounds) were obtained from Sigma-Aldrich.
Quantitative HTS (qHTS) and curve response class classification
The qHTS screen was performed as described previously1. Each compound was titrated in seven concentrations. The final concentrations of the compounds assayed ranged from 4.9 nM to 76.6 µM. The curve response classifications (CRC), which can be used to depict potency, efficacy and reliability of the data, and to estimate an IC50 value, were determined by a customized software2. […]
Sigma-Aldrich) and the basal response (0% inhibition) was set to the DMSO control.
Efficacy of a compound refers to the highest response normalized to the maximal response of LY. The CRCs were grouped into 4 categories. Class 1 are well-fit and have both upper and lower asymptotes with efficacy greater than 30%
(Class1.1, >80% efficacy; Class 1.2; 30-80% efficacy). Class 2 are incomplete with only one asy mptote (Class 2.1, > 80% efficacy; Class 2.2, 30-80% % efficacy). Class 3 display activity only at the highest concentrations and efficacy >30%. Class 4 are with low efficacy (<30%) or no response and considered inactive3.

Akt-PIP3 association = tested on: T1, Akt-PIP3 association; assay: PIP3-Akt pull-down assay; format: binding; settings: inactive Akt, PIP3 beads
T1 construct: purchased Millipore 14-279
Method: according to the method reported previously6. Briefly, the lipids dissolved in methanol/chloroform were mixed at desired proportions and dried with a N2 steam.
The lipid mixture was redissolved in 2 mL cyclohexane containing 75 μM BHT (2,6-di-tert-butyl-p-cresol) and lyophilized under vacuum. Unilamellar vesicles were obtained by reconstituting the dried sample with 1 mL of PBS (pH 7.4) containing 50 μM DTPA (diethylenetriamine pentaacetic acid) followed by extrusion with 0.1 μm polycarbonate membrane (Corning, Inc.). For in vitro phosphorylation of Akt, 1 μL […]
mixture was resolved on SDS gel followed by western blot analysis.
The assay was performed using a protocol published previously7.
(50 ng) in PBS containing 400 ng/mL BSA was incubated with inhibitor G7 or a PI analog (EMD Millipore, #124005) for 2 hr at 4 °C. 25 µL PIP3 beads (Echelon, #P-B345a) was added to the sample and incubated overnight at 4 °C. The beads were washed with washing buffer containing 10 mM HEPES (pH 7.5), 0.25% NP-40 and 150 mM NaCl. Akt was eluted with 2x LDS and measured by immunoblotting.
Chemical cross-linking and mass spectrometry

SYK = assay: KINOMEscan; settings: 50000 nM
Method: KINOMEscan™ selectivity screen
(§1) The assay was perfor med at DiscoveRx Corporation according the methods published previously5. Briefly, Kinase-tagged T7 phage strains were grown in parallel in an E. coli host derived from the BL21 strain. E. coli were grown to log-phase and infected with T7 phage from a frozen stock and incubated with shaking at 32°C until lysis (90-150 minutes). The kinases were produced in HEK-293 cells and subsequently tagged with DNA for qPCR detection. Streptavidin-coated magnetic beads were treated with biotinylated small molecule ligands to generate affinity resins for kinase
(§2) inhibitor or DMSO control was performed in polypropylene 384-well plates for 1 hr at room temperature. After wash with PBS buffer containing 0.05% Tween 20, the beads were incubated in elution buffer (PBS containing 0.05 % Tween 20 and 0.5 μM non-biotinylated affinity ligand) for 30 minutes at room temperature. The kinase concentration in the eluates was measured by qPCR.

ERK3 = assay: KINOMEscan; settings: 50000 nM
Method: KINOMEscan™ selectivity screen
(§3) Briefly, Kinase-tagged T7 phage strains were grown in parallel in an E. coli host derived from the BL21 strain. E. coli were grown to log-phase and infected with T7 phage from a frozen stock and incubated with shaking at 32°C until lysis (90-150 minutes). The kinases were produced in HEK-293 cells and subsequently tagged with DNA for qPCR detection. Streptavidin-coated magnetic beads were treated with biotinylated small molecule ligands to generate affinity resins for kinase
as §2

EPHB1 = assay: KINOMEscan; settings: 50000 nM
Method: KINOMEscan™ selectivity screen
as §3, §2

ERK1 = assay: KINOMEscan; settings: 50000 nM
Method: KINOMEscan™ selectivity screen
as §1, §2

PKN1 = assay: KINOMEscan; settings: 50000 nM
Method: KINOMEscan™ selectivity screen
as §1, §2

MARK4 = assay: KINOMEscan; settings: 50000 nM
Method: KINOMEscan™ selectivity screen
as §1, §2

PIK3CA(Q546K) = assay: KINOMEscan; settings: 50000 nM
Method: KINOMEscan™ selectivity screen
as §3, §2

RIOK2 = assay: KINOMEscan; settings: 50000 nM
Method: KINOMEscan™ selectivity screen
as §1, §2

LOK = assay: KINOMEscan; settings: 50000 nM
Method: KINOMEscan™ selectivity screen
as §1, §2

PIK3CA = assay: KINOMEscan; settings: 50000 nM
Method: KINOMEscan™ selectivity screen
as §1, §2

PRKD2 = assay: KINOMEscan; settings: 50000 nM
Method: KINOMEscan™ selectivity screen
as §1, §2

RIPK2 = assay: KINOMEscan; settings: 50000 nM
Method: KINOMEscan™ selectivity screen
as §1, §2

ALK(C1156Y) = assay: KINOMEscan; settings: 50000 nM
Method: KINOMEscan™ selectivity screen
as §1, §2

MARK1 = assay: KINOMEscan; settings: 50000 nM
Method: KINOMEscan™ selectivity screen
(§4) The assay was perfor med at DiscoveRx Corporation according the methods published previously5. […] The kinases were produced in HEK-293 cells and subsequently tagged with DNA for qPCR detection. Streptavidin-coated magnetic beads were treated with biotinylated small molecule ligands to generate affinity resins for kinase
as §2

CSNK1G2 = assay: KINOMEscan; settings: 50000 nM
Method: KINOMEscan™ selectivity screen
The kinases were produced in HEK-293 cells and subsequently tagged with DNA for qPCR detection. Streptavidin-coated magnetic beads were treated with biotinylated small molecule ligands to generate affinity resins for kinase
as §2

PIP5K1A = assay: KINOMEscan; settings: 50000 nM
RET(M918T) = assay: KINOMEscan; settings: 50000 nM
Method: KINOMEscan™ selectivity screen
as §1, §2

MKNK1 = assay: KINOMEscan; settings: 50000 nM
Method: KINOMEscan™ selectivity screen
as §3, §2

MKNK2 = assay: KINOMEscan; settings: 50000 nM
Method: KINOMEscan™ selectivity screen
as §3, §2

MAP3K3 = assay: KINOMEscan; settings: 50000 nM
Method: KINOMEscan™ selectivity screen
as §3, §2

BIKE = assay: KINOMEscan; settings: 50000 nM
Method: KINOMEscan™ selectivity screen
as §4, §2

[1] = tested on: ABL1(Q252H)-nonphosphorylated; assay: KINOMEscan; settings: 50000 nM
Method: KINOMEscan™ selectivity screen
as §1, §2

MYLK4 = assay: KINOMEscan; settings: 50000 nM
Method: KINOMEscan™ selectivity screen
as §1, §2

Compound: Oc1cc(-c2ccccc2)c2ccccc2n1 [G7, 4-phenylquinolin-2(1H)-one]
- IC50 (Akt S473 phosphorylation; Mus musculus, N2a, Neuro 2A cells, inhibitor 15 min before IGF, read-out: IC50): ~20 µM
- maximum inhibition (Akt S473 phosphorylation; compared to that of 100 µM LY): 50%
- effect on the Akt-PIP3 association (Akt-PIP3 association): insignificant effect
- Percent Control (SYK): 95%
- Percent Control (ERK3): 92%
- Percent Control (EPHB1): 91%
- Percent Control (ERK1): 89%
- Percent Control (PKN1): 89%
- Percent Control (MARK4): 88%
- Percent Control (PIK3CA(Q546K)): 83%
- Percent Control (RIOK2): 83%
- Percent Control (LOK): 82%
- Percent Control (PIK3CA): 82%
- Percent Control (PRKD2): 82%
- Percent Control (RIPK2): 82%
- Percent Control (ALK(C1156Y)): 80%
- Percent Control (MARK1): 76%
- Percent Control (CSNK1G2): 74%
- Percent Control (PIP5K1A): 70%
- Percent Control (RET(M918T)): 70%
- Percent Control (MKNK1): 69%
- Percent Control (MKNK2): 65%
- Percent Control (MAP3K3): 62%
- Percent Control (BIKE): 52%
- Percent Control [1]: 46%
- Percent Control (MYLK4): 43%
